Data taken from patent publication US11339130B1 (Blade Therapeutics, Inc., priority 2016, dated 2022).

Experiments:
rat calpain 1 = molecular target: T1, rat calpain 1 (Rattus norvegicus, UniProt P97571); assay: Calpain binding: crystal structure interaction distances, rat calpain 1; conditions: for Interaction Distances P1-Gly113 / Interaction Distances P1-Gly207 / Interaction Distances P1-Met260 / Interaction Distances P1-Ser206 / Interaction Distances P2-Ala273 / Interaction Distances P2-Gly208 / Interaction Distances P2-Gly271 / Interaction Distances P2-His272 / Interaction Distances P2-Ser251 / Interaction Distances P3-Gly207 / Interaction Distances P3-Gly208 / Interaction Distances P3-Ser209: non-polar interactions with rat calpain 1; for Interaction Distances R^10-Gly271 / Interaction Distances R^11-Gly208 / Interaction Distances R^12-His272 / Interaction Distances R^13-Cys115 / Interaction Distances R^13-Gln109: polar interactions with rat calpain 1
T1 construct: made in house
Protocol: (§1) Calpain 9 Crystallization: A 10 mg/ml solution of rat calpain 1 or human calpain 9 (obtained as described above) was prepared in 50 mM tris (pH 8), 0.5 M NaCl, 1 mM EDTA, 1 mM CaCl2), and 1 mM beta-mercaptoethanol against MCSG1 screen condition C2 (Anatrace, Maumee, Ohio) containing 0.2 M LiSO4, 0.1 M bis-tris (pH 5.5), and 25% PEG 3350. The solution contained 2.5 mM of test compound supplemented with 20% ethylene glycol as a cryo-protectant. The bound protein was crystallized using vapor diffusion, sitting drop, at […]. The space group was P 41 21 2, with unit cell dimensions of 97.2 Å, 97.2 Å, 173.4 Å.
Calpain 1 preparation, crystallization, and data collection: Suitable constructs for expression of rat calpain 1 had been previously established. Expression was performed according to previously established protocols. A purification protocol was established and homogeneous protein was produced in preparative amounts. The calpain 1 protein was purified comprising affinity and gel filtration chromatography steps. This procedure yielded homogenous protein with a purity greater 95% as judged from Coomassie stained SDS-PAGE. The purified protein was used in crystallization trials with test compounds employing both, a standard screen with approximately 1200 different conditions, as well as crystallization conditions identified using literature data. Conditions initially obtained were optimised using standard strategies, systematically varying parameters critically influencing crystallization, such as temperature, protein concentration, drop ratio, and others. These conditions were also refined by systematically varying pH or precipitant concentrations. Crystals were flashfrozen and measured at a temperature of 100 K. The X-ray diffraction data were collected from complex crystals ligands at a synchrotron source using cryogenic conditions. Data were processed using software programs XDS and XSCALE
(§2) Key interactions between test compound moieties (with reference to the variables of Formula II) and calpain 1 or calpain 9 residues were determined as set forth in Tables 4-7 below.

human calpain 9 = molecular target: T2, human calpain 9 (Homo sapiens, UniProt O14815); assay: Calpain binding: crystal structure interaction distances, human calpain 9; conditions: for Interaction Distances P1-Gly95 / Interaction Distances P1-Gly189 / Interaction Distances P1-Lys188 / Interaction Distances P1-Ser242 / Interaction Distances P2-Ala255 / Interaction Distances P2-Gly190 / Interaction Distances P2-Gly253 / Interaction Distances P2-His254 / Interaction Distances P2-Phe233 / Interaction Distances P3-Gly189 / Interaction Distances P3-Gly190 / Interaction Distances P3-Ser191: non-polar interactions with human calpain 9; for Interaction Distances R^10-Gly253 / Interaction Distances R^11-Gly190 / Interaction Distances R^12-His254 / Interaction Distances R^13-Cys97 / Interaction Distances R^13-Gln91: polar interactions with human calpain 9
T2 construct: human calpain 9, residues 27-347, was over expressed in E. coli BL21 (DE3); hexa-histidine (N); made in house; host or cells: E. coli BL21 (DE3)
T2 sequence (O14815 27-347): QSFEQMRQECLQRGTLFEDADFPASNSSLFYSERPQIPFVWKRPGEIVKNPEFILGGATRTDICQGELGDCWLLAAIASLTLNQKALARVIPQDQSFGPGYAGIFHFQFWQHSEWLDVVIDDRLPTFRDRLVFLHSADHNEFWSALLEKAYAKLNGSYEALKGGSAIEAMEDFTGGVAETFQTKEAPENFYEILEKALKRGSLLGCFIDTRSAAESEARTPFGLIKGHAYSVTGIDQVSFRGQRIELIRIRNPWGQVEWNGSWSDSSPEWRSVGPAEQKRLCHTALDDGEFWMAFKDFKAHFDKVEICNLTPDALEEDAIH
Protocol: Calpain 9 Protein Preparation: N-terminally hexa-histidine-tagged human calpain 9, residues 27-347, was over expressed in E. coli BL21 (DE3) and purified via Ni-NTA and size-exclusion chromatography with yields >10 mg/liter of culture and >99% purity. The calpain 9 sequence is accession number 014815 at uniprot.org.
as §1
Calpain 9 Crystallography data collection and refinement: Data was collected at the APS synchrotron, beamline 21-ID-F at […]. Reflections were collect between 45.0-2.1 Å with completeness of 100%. Reflection data was analyzed using XDS and Xscale (Heidelberg, Germany). Structure was solved using molecular replacement and was refined with PHENIX (Berkeley, Calif.) to an R value of 0.168, Rfree=0.210.
as §2

T1 sequence (P97571 29-356 limits assumed): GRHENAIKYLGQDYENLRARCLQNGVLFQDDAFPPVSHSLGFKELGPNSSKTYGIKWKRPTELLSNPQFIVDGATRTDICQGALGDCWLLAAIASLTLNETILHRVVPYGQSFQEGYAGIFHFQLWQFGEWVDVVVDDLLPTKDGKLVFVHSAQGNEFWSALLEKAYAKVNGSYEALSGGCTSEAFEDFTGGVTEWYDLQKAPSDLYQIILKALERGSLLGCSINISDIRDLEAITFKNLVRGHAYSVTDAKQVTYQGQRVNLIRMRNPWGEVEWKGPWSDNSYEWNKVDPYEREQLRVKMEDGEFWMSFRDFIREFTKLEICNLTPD

Row | SMILES | Interaction Distances P1-Gly113 (rat calpain 1) [Å] | Interaction Distances P1-Gly207 (rat calpain 1) [Å] | Interaction Distances P1-Met260 (rat calpain 1) [Å] | Interaction Distances P1-Gly95 (human calpain 9) [Å] | Interaction Distances P1-Gly189 (human calpain 9) [Å] | Interaction Distances P1-Lys188 (human calpain 9) [Å] | Interaction Distances P1-Ser242 (human calpain 9) [Å] | Interaction Distances P2-Ala255 (human calpain 9) [Å] | Interaction Distances P2-Gly190 (human calpain 9) [Å] | Interaction Distances P2-Gly253 (human calpain 9) [Å] | Interaction Distances P2-His254 (human calpain 9) [Å] | Interaction Distances P2-Phe233 (human calpain 9) [Å] | Interaction Distances P3-Gly189 (human calpain 9) [Å] | Interaction Distances P3-Gly190 (human calpain 9) [Å] | Interaction Distances P3-Ser191 (human calpain 9) [Å] | Interaction Distances R^10-Gly253 (human calpain 9) [Å] | Interaction Distances R^11-Gly190 (human calpain 9) [Å] | Interaction Distances R^12-His254 (human calpain 9) [Å] | Interaction Distances R^13-Cys97 (human calpain 9) [Å] | Interaction Distances R^13-Gln91 (human calpain 9) [Å] | further results
1 | NC(=O)C(=O)[C@H](Cc1ccccc1)NC(=O)c1cnoc1-c1ccccc1 [Compound 60, (S)—N-(4-amino-3,4-dioxo-1-phenylbutan-2-yl)-5-phenylisoxazole-4-carboxamide] | 4.0 | 3.7 | 3.3 |  |  |  |  |  |  |  |  |  |  |  |  |  |  |  |  |  | Interaction Distances P1-Ser206 (rat calpain 1): 4.4 Å; Interaction Distances P2-Ala273 (rat calpain 1): 4.1 Å; Interaction Distances P2-Gly208 (rat calpain 1): 3.2 Å; Interaction Distances P2-Gly271 (rat calpain 1): 3.2 Å; Interaction Distances P2-His272 (rat calpain 1): 4.2 Å; Interaction Distances P2-Ser251 (rat calpain 1): 4.4 Å; Interaction Distances P3-Gly207 (rat calpain 1): 3.7 Å; Interaction Distances P3-Gly208 (rat calpain 1): 3.3 Å; Interaction Distances P3-Ser209 (rat calpain 1): 4.4 Å; Interaction Distances R^10-Gly271 (rat calpain 1): 3.21 Å; Interaction Distances R^11-Gly208 (rat calpain 1): 2.9 Å; Interaction Distances R^12-His272 (rat calpain 1): 2.9 Å; Interaction Distances R^13-Cys115 (rat calpain 1): 2.91 Å; Interaction Distances R^13-Gln109 (rat calpain 1): 2.91 Å
2 | Cn1cc(C(=O)N[C@@H](Cc2ccccc2)C(=O)C(N)=O)c(-c2ccccc2)n1 [Compound 32, (S)—N-(4-amino-3,4-dioxo-1-phenylbutan-2-yl)-1-methyl-3-phenyl-1H-pyrazole-4-carboxamide] |  |  |  | 4.0 | 3.5 | 3.8 | 3.6 | 4.3 | 3.3 | 3.1 | 4.2 | 3.3 | 3.7 | 3.5 | 4.4 | 3.2 | 2.9 | 2.7 | 2.9 | 2.8 | 
3 | CCCC[C@H](NC(=O)c1oc(C)nc1-c1ccccc1)C(=O)C(N)=O [Compound 265, (S)—N-(1-amino-1,2-dioxoheptan-3-yl)-2-methyl-4-phenyloxazole-5-carboxamide] |  |  |  | 3.7 | 3.7 | 4.4 | 4.0 | 4.1 | 3.2 | 2.9 | 4.2 | 3.3 | 3.8 | 3.4 | 3.8 | 2.9 | 3.2 | 2.4 | 3.1 | 2.9 | 
4 | NC(=O)C(=O)[C@H](Cc1ccccc1)NC(=O)c1nsnc1-c1ccccc1 [Compound 72, (S)—N-(4-amino-3,4-dioxo-1-phenylbutan-2-yl)-4-phenyl-1,2,5-thiadiazole-3-carboxamide] |  |  |  | 3.9 | 3.5 | 4.0 | 3.5 | 3.6 | 3.0 | 3.2 | 3.7 | 4.1 | 3.8 | 3.3 | 4.2 | 3.2 | 2.9 | 2.6 | 2.9 | 2.8 | 
5 | NC(=O)C(=O)[C@H](Cc1ccccc1)NC(=O)c1cn(C2CC2)nc1-c1ccccc1 [Compound 250, (S)—N-(4-amino-3,4-dioxo-1-phenylbutan-2-yl)-1-cyclopropyl-3-phenyl-1H-pyrazole-4-carboxamide] | 3.8 | 3.5 | 3.5 |  |  |  |  |  |  |  |  |  |  |  |  |  |  |  |  |  | Interaction Distances P1-Ser206 (rat calpain 1): 4.1 Å; Interaction Distances P2-Ala273 (rat calpain 1): 4.4 Å; Interaction Distances P2-Gly208 (rat calpain 1): 3.3 Å; Interaction Distances P2-Gly271 (rat calpain 1): 3.4 Å; Interaction Distances P2-His272 (rat calpain 1): 4.6 Å; Interaction Distances P2-Ser251 (rat calpain 1): 3.7 Å; Interaction Distances P3-Gly207 (rat calpain 1): 3.6 Å; Interaction Distances P3-Gly208 (rat calpain 1): 3.5 Å; Interaction Distances P3-Ser209 (rat calpain 1): 3.8 Å; Interaction Distances R^10-Gly271 (rat calpain 1): 3.28 Å; Interaction Distances R^11-Gly208 (rat calpain 1): 2.98 Å; Interaction Distances R^12-His272 (rat calpain 1): 2.81 Å; Interaction Distances R^13-Cys115 (rat calpain 1): 2.96 Å; Interaction Distances R^13-Gln109 (rat calpain 1): 3 Å
6 | NC(=O)C(=O)[C@H](Cc1ccccc1)NC(=O)c1snnc1-c1ccccc1 [Compound 44, (S)—N-(4-amino-3,4-dioxo-1-phenylbutan-2-yl)-4-phenyl-1,2,3-thiadiazole-5-carboxamide] |  |  |  | 3.6 | 3.4 | 3.7 | 3.7 | 3.9 | 3.0 | 3.4 | 4.2 | 4.4 | 4.0 | 3.3 | 4.2 | 2.9 | 3.2 | 2.5 | 3.0 | 2.8 | 
